Entries after “also recorded” stand apart in the source; their conditions may differ.
How the values were obtained:
Assay type in all cases: cell-based
[1] = tested on: neuroblastoma (Kelly) cells; experiment: CellTiter-Glo counter-screen, Kelly; conditions: Homo sapiens, cancer cells
Protocol: The neuroblastoma cell line Kelly was cultured in RPMI-1640 medium, supplemented with 15% fetal bovine serum (FBS), penicillin (50 U/ml) and streptomycin (50 μg/ml).
(§1) 696 confirmed hits from the confirmation screen were tested for profiling in a panel of 13 different cell types, using the same screening protocol described above (except in the case of embryonic stem cell-derived neural stem cells (NSCs) and mesenchymal stem cells (MSCs), for which the protocol is described below). As discussed below, compounds were tested either in dose-dependent multiple concentration manner or in single concentration manner. CSES2 and CSES2-SO2/3 cell lines and the early endodermal progenitors derived from this cell line (CSES2-SO2/3-differentiated) were screened at 8 concentrations ranging from 50 μM to 23 nM with 1:3 serial dilution steps. BJ-iPS28 cell line and the BJ fibroblasts from which it was derived were screened at 6 concentrations ranging from 50 μM to 200 nM with 1:3 serial dilution steps. Cardiomyocytes were screened in one concentration of 20 μM. HeLa and NTERA-2 cell lines were screened in duplicates of 20 μM. Kelly and Huh-7 were screened in triplicates of 20 μM. Hepatocytes were screened in duplicates of 20 μM in the original 96-well plates in which the cells arrived (40,000 cells per well, in 160 μl medium, the volumes of all reagents involved were adjusted accordingly). MSCs and NSCs were screened in duplicates of 12.5 μM.
(§2) In order to identify highly-selective cytotoxic inhibitors of hPSCs, the 696 cytotoxic inhibitors of hPSCs identified as described in Example 1 were counter-screened as described in the Materials and Methods section against other cell types, representative of all germ layers and developmental stages. Importantly, many of these cell types were differentiated from human ES or iPS cells. The screened cell types included ES-derived neural stem cells (NSCs), ES-derived mesenchymal stem cells (MSCs), ES-derived endodermal progenitor cells, ES-derived hepatocytes, iPS-derived cardiomyocytes, iPS-derived fibroblasts of origin (BJ fibroblasts), and three cancer cell lines: neuroblastoma (Kelly), cervical cancer (HeLa) and hepatocarcinoma (Huh7). The cell types and their relationship to stem cells are depicted schematically in FIG. 14.

[2] = tested on: BJ-iPS28 induced pluripotent stem cells; experiment: CellTiter-Glo luminescent cell viability screen, BJ-iPS28; conditions: Homo sapiens; for EC50: 24 h; for inhibition at 20 µM: pluripotent stem cells
Protocol: (§3) 5,000 CSES2 cells were plated in 50 μl per well of mTeSR1 medium into black 384-well clear-bottom plates (Falcon BD) pre-coated with Matrigel™ using WellMate cell dispenser (Matrix, Hudson, N.H.). 24 hours after plating, medium was replaced with 25 μl of fresh medium and 25 μl of 40 μM compound medium solutions in 1% DMSO from the intermediate compound dilution plates. The plates were incubated at 37° C., in a 5% CO2 atmosphere, for the entire duration of the screen, apart from the time required for liquid handling. Cell viability was determined 24 hours after compound treatment using CellTiter-Glo® luminescent cell viability assay kits. 50 μl of CellTiter-Glo® reagent was added to each well of the assay plates and fully mixed. After incubation at room temperature for 15 minutes, 25 μl of liquid was transferred from each well into a white opaque-bottom 384-well plate (PerkinElmer), and luminescence was measured using an EnVision® plate reader (PerkinElmer). 16 neutral control wells (0.5% DMSO) and 8 positive control wells (5 μM amsacrine hydrochloride were used to normalize the compound effect. All liquid transfer steps were handled with a Biomek® FXP Laboratory Automation Workstation (Beckman Coulter, Fullerton, Calif.) and Muitidrop Combi liquid dispenser (Thermo Fisher, Waltham, Mass.). An Assay Analyzer (Genedata, Basel, Switzerland) was used for data pattern correction and calculation. The Spotfire software (Spotfire, Somerville, Mass.) was used for data illustration.
as §1, with “BJ-iPS28 cell line and the BJ fibroblasts from which it was derived were screened at 6 concentrations ranging from 50 μM to 200 nM with 1:3 serial dilution steps.” left out
(§4) The raw intensity data for each well were background-corrected by subtraction of the median intensities across all positive control wells on the same plate, and used to calculate the inhibitory effect of each compound per cell line. A Genedata Assay Analyzer and Condoseo were used for data pattern correction, calculation and IC50 curve fitting. A Z′ factor was determined for each plate.
The effect of the selected compounds on human iPS cells was then determined. […]

[3] = tested on: BJ-fibroblasts; experiment: CellTiter-Glo counter-screen, BJ-fibroblasts; conditions: Homo sapiens; for EC50: 24 hours, differentiated cells
Protocol: The cervical carcinoma cell line HeLa, teratocarcinoma cell line NTERA-2, and immortalized BJ fibroblast cell line, were cultured in DMEM supplemented with 10% FBS, penicillin (50 U/ml) and streptomycin (50 μg/ml).
as §1, §2
In addition, the identified compounds were screened at 6 concentrations using the BJ-fibroblasts from which the iPS line BJ-iPS28 had been derived, and reliable EC50 values were thereby calculated for both the iPS cells and for their somatic cells of origin.

[4] = tested on: H9 human embryonic stem cells; experiment: CellTiter-Glo luminescent cell viability screen, H9; conditions: pluripotent stem cells
Protocol: as §3
The compounds identified as hits from the primary screen were retested at a concentration of 20 μM against three pluripotent stem cell lines (CSES2, H9 and CSES2-SO2/3) for confirmation screens.
as §4

[5] = tested on: human embryonic stem cells; experiment: Oleic acid rescue assay; conditions: 20 μM PluriSIn (2 μM amsacrine); up to 100 μM BSA-OA
Protocol: Human embryonic stem cells were cultured without feeder cells in CELLSTAR® 24-well tissue culture plates (Greiner Bio-One) pre-coated with Matrigel™, using mTeSR1 defined medium. […] After 24 hours, the cells were subjected to microscopy imaging and to cell viability measurements.
In order to further investigate the effect of SCD activity on hPSC viability, the ability of exogenous supplementation of oleic acid (the direct product of SCD1) to rescue cells from PluriSIn-induced apoptosis was further studied, using procedures described in the Materials and Methods section. Cells were exposed to PluriSn #1 in the presence of increasing concentrations of BSA-conjugated oleic acid (BSA-OA).
For comparison, cells were exposed to 20 μM of PluriSIn #1, #2, #3 and #6 in the presence of 100 μM BSA-OA.

[6] = CellTiter-Glo counter-screen, hepatocytes; conditions: human, human embryonic stem cell-derived hepatocytes (Cellartis), read-out: Inhibition (%) ES-derived hepatocytes
Protocol: Human embryonic stem cell-derived hepatocytes were obtained from Cellartis (Goteborg, Sweden), and handled according to the manufacturer's instructions;
as §1, §2

| SMILES | inhibition at 20 µM [1] [%] | EC50 [2] [nM] | inhibition at 20 µM [2] [%] | EC50 [3] [µM] | inhibition at 20 µM [3] [%] | inhibition at 20 µM [4] [%] | protection by BSA-conjugated oleic acid (BSA-OA) against cell death induced by the compound [5] | inhibition at 20 µM [6] [%] |
| --- | --- | --- | --- | --- | --- | --- | --- | --- |
| O=C(NNc1ccccc1)c1ccncc1 [PluriSIn #1, isonicotinic acid N′-phenylhydrazide] | -2 | 2390 | 85.4 | > 50 | -8.8 | 88.6 | full rescue; also recorded: protected | 16.2 |
| O=C(Nc1ccccc1)n1cc(F)c(=O)[nH]c1=O [PluriSIn #2] | 3 | 6960 | 56.8 | > 50 | -8.3 | 65.4 |  | 13.2 |
| Nc1cc(N)cc(COc2ccc(-c3ccccc3)cc2)c1 [PluriSIn #3] | 2.3 | 1680 | 81.1 | > 50 | -25.4 | 110 |  | 2.8 |
| O=C(NCCc1ccc(O)cc1)c1ccc(N2CCCCC2)cc1 [PluriSIn #4] | 9.4 | 750 | 74.8 | > 50 | -22.9 | 74.1 |  | 10.5 |
| O=S(=O)(NNc1ccccc1)c1ccc2ccccc2c1 [PluriSIn #5] | 0.2 | 1520 | 87.9 | > 50 | -7.5 | 82.2 | protected | 0.3 |
| Cc1ccc(NNC(=O)C(O)(c2ccccc2)c2cccs2)cc1 (centres unmarked) [PluriSIn #6, 2-hydroxy-2-(thiophen-2-yl)-2-phenylacetic acid 4-methyl-N′-phenylhydrazide] | 1.8 | 2260 | 83.3 | > 50 | 15.9 | 90.1 | protected | -5.2 |
| CC(=O)Oc1ccc(/C=C/c2ccc3c(c2)CCN3C)cc1 [PluriSIn #7] | 26.7 | 2130 | 89 | > 50 | -9.7 | 109 |  | 15.3 |
| Cc1oc2ccccc2c1/C=N/Nc1ccccc1 [PluriSIn #8] | -1 | 1690 | 82.2 | > 50 | -10.3 | 85.5 |  | 14.6 |
| C/C(=N\O)NNc1ccc(Cl)cc1 [PluriSIn #9] | 6 | 3420 | 92.3 | > 50 | -22.7 | 101 |  | 6.1 |
| CCCCCC(=O)NNc1ccc(Cl)cc1 [PluriSIn #10] | 5.7 | 2420 | 87.4 | > 50 | -20.1 | 88 |  | 3.6 |
| CCOC(=O)CN1CC(=O)/C(=C\NNc2ccccc2)C1=O [PluriSIn #11] | 3.3 | 3120 | 90.6 | > 50 | -19.3 | 94 |  | -4.7 |
| CCN(CC)C(=O)C(=O)c1c(-c2ccccc2)[nH]c2c1sc1ccccc12 [PluriSIn #12] | -0.9 | 5400 | 83.4 | > 50 | -8.4 | 95.8 |  | -3.9 |
| O=C1C=CC=C1/C=C/C(=N\Nc1ccccc1)c1ccccc1 [PluriSIn #13] | 17.5 | 1500 | 94.4 | > 50 | -15.4 | 101 |  | 13.4 |
| O=C(NN(C(=O)c1ccccc1)c1ccccc1)c1ccc(Cl)cc1 [PluriSIn #14] | 0 | 3480 | 81.7 | > 50 | -18.6 | 79.4 |  | -4.1 |
| C(=N\C1CCC(CC2CCCCC2)CC1)/OC1CCOC1 (centres unmarked) [PluriSIn #15] | 9.9 | 3940 |  | > 50 | -6.1 | 79.5 |  | 18.8 |

Reference: US20180153830A1, “SELECTIVE INHIBITORS OF UNDIFFERENTIATED CELLS” (Yissum Research Development Company of the Hebrew …, priority 2012, published 2018)
